Measurements: patent US8455505B2, “Pyrrolopyrimidinedione and its therapeutic use” (Chiesi Farmaceutici S.p.A., priority 2009, dated 2013)

Columns and labels:
[1] = target: T1, human leukocyte elastase (Homo sapiens, UniProt P08246); assay: Enzyme inhibition assay using fluorescent peptide substrate; assay type: biochemical; details: MeO-Suc-Ala-Ala-Pro-ValAMC substrate 100 μM, free base, means of two independent experiments
T1 construct: purchased Sigma E8140
T1 sequence (P08246 30-247 limits assumed): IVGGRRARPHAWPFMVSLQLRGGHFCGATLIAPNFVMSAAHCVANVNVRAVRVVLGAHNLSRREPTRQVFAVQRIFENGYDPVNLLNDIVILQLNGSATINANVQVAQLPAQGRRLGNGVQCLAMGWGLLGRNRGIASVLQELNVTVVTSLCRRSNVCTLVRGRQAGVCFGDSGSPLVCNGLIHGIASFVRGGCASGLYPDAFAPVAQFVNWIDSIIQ
Protocol: Using Fluorescent Peptide Substrate
Assays were performed in 96-well plates at a total assay volume of 100 μl. The final concentration of the enzyme (human leukocyte elastase, Sigma E8140) was 0.00036 units/well. A peptide substrate (MeO-Suc-Ala-Ala-Pro-ValAMC (SEQ ID NO: 1), Calbiochem #324745) was used, at the final concentration of 100 μM. The final concentration of DMSO was 1% in the assay buffer (0.05M Tris.HCl, pH 7.5, 0.1M NaCl; 0.1M CaCl2; 0.0005% brij-35).
The enzymatic reaction was started by adding the enzyme. The enzymatic reaction was performed at RT and after 30 mins stopped by adding 50 μl soybean trypsin inhibitor (Sigma T-9003) at a final concentration of 50 μg/well. Fluorescence was read on the FLEXstation (Molecular Devices) using 380 nm excitation and 460 nm emission filters. […] The results are means of two independent experiments, each performed in duplicate.
The results are means of two independent experiments, each performed in duplicate.

[2] = system: HNE Induced Lung Haemorrhage in the Rat; assay: HNE induced lung haemorrhage in the rat; assay type: in vivo; details: 100 μg/kg i.t., 6 hours prior to HNE, free base, statistically significant
Text: HNE Induced Lung Haemorrhage in the Rat
Instillation of human neutrophil elastase (HNE) into rat lung causes acute lung damage. The extent of this injury can be assessed by measuring lung haemorrhage.
Male Sprague Dawley rats (175-220 g) were obtained from Harlan UK Ltd., full barrier-bred and certified free from specified micro-organisms on receipt. Animals were weighed and randomly assigned to treatment groups (7-12 animals to per group).
The vehicle used was 1% DMSO/Saline. Inhibitors were dissolved in 1% DMSO before the addition of 0.9% saline.
Animals in each study used to determine the efficacy of the elastase inhibitors delivered locally to the lung by a variety of routes. […]
Once defrosted 100 μl of each lysed cell suspension was placed into a separate well of a 96 well flat bottomed plate. […] The OD of the contents of each well was measured at 415 nm using a spectramax 250 (Molecular devices). […]
The amount of blood in each experimental sample was calculated by comparison to the standard curve. Data were then analysed as below: • 1) The mean OD for duplicates was calculated • 2) The value for the blank was subtracted from the value for all other samples • 3) Data were assessed to evaluate the normality of distribution.

[3] = PK assay: half life in the lung after intra-tracheal administration; assay type: in vivo; details: rat, other: intra-tracheal, 10 ug/kg; male Sprague-Dawley rats, single intra-tracheal dose 10 μg/Kg, lung homogenate; free base; read-out: terminal lung t1/2 (converted)
Protocol: Comparison of the Half Lives in the Lung of the Compound of the Invention and the Compound of Example 18 of WO2007/129060
Test material was formulated at 20 μg/mL in 0.2% Tween 80 in saline. Solutions were sonicated and warmed in a water bath at 40° C. prior to dosing. Male Sprague-Dawley rats received a single intra-tracheal administration of the test material via a Penn-Century dosing needle at the nominal dose level of 10 μg/Kg. After dosing five rats from each group were terminally anaesthetized with sodium pentobarbitone at 1, 2, 4, 8, 24, 72 and 96 hours for compound (IA) (free base) and 1, 4, 8, 24, 72, 96, 168, 264 and 336 for compound (II) (free base) post dose. Blood was sampled from the tail vein, following which the chest was opened, the animal exanguinated by perfusion and the lungs removed and snap frozen. After collection the blood samples were centrifuged (10000×g, 2 min at 4° C.). Plasma was removed and both stored frozen at −20° C. Rat lungs were homogenised in water (on ice) to give a ratio of 1 part lung:2 parts water (w/v). A 100 μL aliquot of each homogenate was extracted by addition of 200 μL acetonitrile containing an analytical internal standard. […]
Test material was analysed on a triple quadrupole mass spectrometer (AB Sciex API 3000) fitted with LC pump and autosampler (Reliance). Test material was detected in positive ion mode Turbo Ion Spray. […]

IC50 [1] | half-life [3] | Structure (SMILES) | reduction in haemorrhage relative to control [2]
8.4 nM | 37 h | N#Cc1ccc([C@H]2NC(=O)N(c3cccc(C(F)(F)F)c3)C3=C2C(=O)N(CCCNCCCN2CC4=C(C2=O)[C@@H](c2ccc(C#N)nc2)NC(=O)N4c2cccc(C(F)(F)F)c2)C3)cn1 [Compound (IA)] | 95%
2.1 nM | 94 h | N#Cc1ccc([C@H]2NC(=O)N(c3cccc(C(F)(F)F)c3)C3=C2C(=O)N(CCCNCCCN2CC4=C(C2=O)[C@@H](c2ccc(C#N)cc2)NC(=O)N4c2cccc(C(F)(F)F)c2)C3)cc1 [Compound (II)] | 88%
